According to PubChem BioAssay AID248 (DTP/NCI, 2004):
Where “and” joins values, the source holds several entries; their conditions need not be identical. Equal values may be shown once. Toxic doses and inconclusive results are not listed. Rule as the data show it: active = T/C of 150% or more; inactive = T/C below 125%.

Tested on: L1210 leukemia ip in BDF1 mice, survival T/C
Test: NCI In Vivo Anticancer Drug Screen. Data for tumor model L1210 Leukemia (intraperitoneal) in B6D2F1 (BDF1) mice
Conditions: endpoint: mean survival time, higher = longer survival
Method in brief: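 Antitumor effect is assessed in tumor-bearing animals. Survival in the compound arm is compared with a vehicle-dosed control arm and expressed as their quotient.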

[1] = dose: 100.0 mg/kg/injection, schedule: Q01DX009 (ip), vehicle: other
[2] = dose: 200.0 mg/kg/injection, schedule: Q01DX009 (ip), vehicle: other
[3] = dose: 400.0 mg/kg/injection, schedule: Q01DX009 (ip), vehicle: other
[4] = dose: 100.0 mg/kg/injection, schedule: Q01DX009 (ip), vehicle: saline with Tween-80
[5] = dose: 200.0 mg/kg/injection, schedule: Q01DX009 (ip), vehicle: saline with Tween-80
[6] = dose: 400.0 mg/kg/injection, schedule: Q01DX009 (ip), vehicle: saline with Tween-80
[7] = dose: 25.0 mg/kg/injection, schedule: Q01DX001 (ip), vehicle: saline with Tween-80
[8] = dose: 50.0 mg/kg/injection, schedule: Q01DX001 (ip), vehicle: saline with Tween-80
[9] = dose: 100.0 mg/kg/injection, schedule: Q01DX001 (ip), vehicle: saline with Tween-80
[10] = dose: 100.0 mg/kg/injection, schedule: Q04DX003 (ip), vehicle: Klucel (hydroxypropylcellulose) (HPC)
[11] = dose: 200.0 mg/kg/injection, schedule: Q04DX003 (ip), vehicle: Klucel (hydroxypropylcellulose) (HPC)
[12] = dose: 400.0 mg/kg/injection, schedule: Q04DX003 (ip), vehicle: Klucel (hydroxypropylcellulose) (HPC)
[13] = dose: 100.0 mg/kg/injection, schedule: Q01DX001 (ip), vehicle: Klucel (hydroxypropylcellulose) (HPC)
[14] = dose: 200.0 mg/kg/injection, schedule: Q01DX001 (ip), vehicle: Klucel (hydroxypropylcellulose) (HPC)
[15] = dose: 400.0 mg/kg/injection, schedule: Q01DX001 (ip), vehicle: Klucel (hydroxypropylcellulose) (HPC)
[16] = dose: 100.0 mg/kg/injection, schedule: Q04DX002 (ip), vehicle: saline with Tween-80
[17] = dose: 400.0 mg/kg/injection, schedule: Q04DX002 (ip), vehicle: saline with Tween-80
[18] = dose: 100.0 mg/kg/injection, schedule: Q04DX003 (ip), vehicle: saline
[19] = dose: 200.0 mg/kg/injection, schedule: Q04DX003 (ip), vehicle: saline
[20] = dose: 400.0 mg/kg/injection, schedule: Q04DX003 (ip), vehicle: saline

Measured: T/C

OC(CI)C(O)C(O)C(O)CI (stereo not drawn)
inactive: dose: 50.0 mg/kg/injection, schedule: Q01DX009 (ip), vehicle: other 101 % of control | [1] 101 % of control and 106 % of control | dose: 100.0 mg/kg/injection, schedule: Q## X024 (ip), vehicle: other 103 % of control | dose: 177.0 mg/kg/injection, schedule: Q01DX Z (ip), vehicle: methylcellulose (MC) 92 % of control | dose: 200.0 mg/kg/injection, schedule: Q01DX001 (ip), vehicle: other 103 % of control and 101 % of control | [2] 95 % of control and 111 % of control | dose: 200.0 mg/kg/injection, schedule: Q## X003 (ip), vehicle: other 109 % of control | dose: 200.0 mg/kg/injection, schedule: Q## X024 (ip), vehicle: other 111 % of control | dose: 267.0 mg/kg/injection, schedule: Q01DX Z (ip), vehicle: methylcellulose (MC) 108 % of control | dose: 400.0 mg/kg/injection, schedule: Q01DX001 (ip), vehicle: other 97 % of control and 111 % of control | [3] 101 % of control | dose: 400.0 mg/kg/injection, schedule: Q01DX Z (ip), vehicle: methylcellulose (MC) 93 % of control | dose: 400.0 mg/kg/injection, schedule: Q## X003 (ip), vehicle: other 109 % of control | dose: 400.0 mg/kg/injection, schedule: Q## X024 (ip), vehicle: other 108 % of control | dose: 600.0 mg/kg/injection, schedule: Q01DX Z (ip), vehicle: methylcellulose (MC) 98 % of control | dose: 800.0 mg/kg/injection, schedule: Q01DX001 (ip), vehicle: other 105 % of control and 101 % of control | dose: 800.0 mg/kg/injection, schedule: Q## X003 (ip), vehicle: other 109 % of control | dose: 800.0 mg/kg/injection, schedule: Q## X024 (ip), vehicle: other 124 % of control

Cc1[nH]nc2c(=O)[nH]c(=O)[nH]c12
inactive: dose: 75.0 mg/kg/injection, schedule: Q01DX001 (ip), vehicle: saline 100 % of control | dose: 150.0 mg/kg/injection, schedule: Q01DX001 (ip), vehicle: saline 103 % of control | dose: 300.0 mg/kg/injection, schedule: Q01DX001 (ip), vehicle: saline 107 % of control

Cc1cccc(=O)n1Cc1ccccc1
inactive: dose: 100.0 mg/kg/injection, schedule: Q01DX001 (ip), vehicle: saline 104 % of control | [4] 97 % of control | dose: 200.0 mg/kg/injection, schedule: Q01DX001 (ip), vehicle: saline 98 % of control | [5] 91 % of control | dose: 400.0 mg/kg/injection, schedule: Q01DX001 (ip), vehicle: saline 105 % of control | [6] 88 % of control

CCC1(O)C(=O)OCc2c1cc(C(=O)OC)n(C)c2=O (stereo not drawn)
inactive: [7] 97 % of control | [8] 95 % of control | [9] 97 % of control | dose: 200.0 mg/kg/injection, schedule: Q01DX001 (ip), vehicle: saline with Tween-80 98 % of control

Cc1ccc(C(=O)Nc2ccc([N+](=O)[O-])cc2)cc1
inactive: [10] 88 % of control | [11] 100 % of control | [12] 98 % of control

O=C(CNC(=O)C1CCCN1Sc1ccc([N+](=O)[O-])cc1[N+](=O)[O-])NCC(=O)OCc1ccccc1 (stereo not drawn)
inactive: [13] 98 % of control | [14] 103 % of control | [15] 98 % of control

CCCCSCCO
inactive: [4] 89 % of control | [16] 96 % of control | [5] 96 % of control | dose: 200.0 mg/kg/injection, schedule: Q04DX002 (ip), vehicle: saline with Tween-80 93 % of control | [6] 107 % of control | [17] 86 % of control

CCCCCCCC(C)NCCOC(=O)c1ccc(N)cc1 (stereo not drawn)
inactive: dose: 75.0 mg/kg/injection, schedule: Q01DX001 (ip), vehicle: other 117 % of control | dose: 150.0 mg/kg/injection, schedule: Q01DX001 (ip), vehicle: other 101 % of control

COC1=CC(C)C2CC3OC(O)CC4C(C)=C(OC)C(=O)C(C2(C)C1=O)C34C (stereo not drawn)
inactive: [13] 102 % of control | dose: 100.0 mg/kg/injection, schedule: Q01DX009 (ip), vehicle: Klucel (hydroxypropylcellulose) (HPC) 91 % of control | [10] 96 % of control | [14] 105 % of control | dose: 200.0 mg/kg/injection, schedule: Q01DX009 (ip), vehicle: Klucel (hydroxypropylcellulose) (HPC) 100 % of control | [11] 97 % of control | [15] 105 % of control | dose: 400.0 mg/kg/injection, schedule: Q01DX009 (ip), vehicle: Klucel (hydroxypropylcellulose) (HPC) 94 % of control | [12] 96 % of control

Clc1ccc(Cl)c(-c2csc(Nc3cccnc3)n2)c1
inactive: [18] 92 % of control | [19] 94 % of control | [20] 97 % of control

Cn1c(C(N)=O)cc(=O)n1-c1ccc([N+](=O)[O-])cc1
inactive: [10] 101 % of control | [11] 97 % of control | [12] 101 % of control

CN(C)CCCc1c2ccccc2nc2ccc(Cl)cc12
inactive: dose: 12.0 mg/kg/injection, schedule: Q01DX009 (ip), vehicle: saline 98 % of control | dose: 25.0 mg/kg/injection, schedule: Q01DX009 (ip), vehicle: saline 101 % of control

Nc1ccccc1SC1CC(=O)N(c2ccccc2)C1=O (stereo not drawn)
inactive: [1] 95 % of control | [18] 94 % of control | [2] 92 % of control | [19] 89 % of control | [3] 92 % of control | [20] 91 % of control

Nc1nc(C=O)c(Cc2ccc(Br)cc2)c(=O)[nH]1
inactive: [4] 118 % of control | dose: 100.0 mg/kg/injection, schedule: Q04DX003 (ip), vehicle: saline with Tween-80 100 % of control | dose: 200.0 mg/kg/injection, schedule: Q04DX003 (ip), vehicle: saline with Tween-80 105 % of control | dose: 400.0 mg/kg/injection, schedule: Q04DX003 (ip), vehicle: saline with Tween-80 102 % of control

O=C(Nc1ccccc1C(=O)c1ccccn1)c1ccccc1
inactive: [10] 104 % of control | [11] 98 % of control | [12] 101 % of control

CN(N=O)C(=O)NCCOC(=O)N(C)N=O
inactive: dose: 6.25 mg/kg/injection, schedule: Q01DX Z (ip), vehicle: carboxymethylcellulose (CMC) 124 % of control | dose: 12.5 mg/kg/injection, schedule: Q01DX Z (ip), vehicle: carboxymethylcellulose (CMC) 124 % of control

O=C(Nc1cccc(C(F)(F)F)c1)Oc1ccc(Cl)cc1Cc1ccccc1
inactive: [4] 98 % of control | [5] 93 % of control | [6] 92 % of control

O=S1(=O)c2ccccc2-c2ncccc21
inactive: [7] 105 % of control | [8] 109 % of control | [9] 109 % of control

c1ccc(CC[n+]2ccccc2)cc1
inactive: dose: 10.0 mg/kg/injection, schedule: Q01DX001 (ip), vehicle: saline 106 % of control | dose: 20.0 mg/kg/injection, schedule: Q01DX001 (ip), vehicle: saline 94 % of control | dose: 40.0 mg/kg/injection, schedule: Q01DX001 (ip), vehicle: saline 95 % of control

Nc1nc(N)nc(Cl)n1
inactive: [16] 98 % of control | [17] 95 % of control
